Assay results taken from article PMC6343074, “New Irreversible α‐L‐Iduronidase Inhibitors and Activity‐Based Probes” (Chemistry (Weinheim an Der Bergstrasse, Germany), 2018).

Key:
[1] = target: T1, rIDUA (human recombinant α-L-iduronidase, Aldurazyme) (Homo sapiens, UniProt P35475); test: fluorogenic 4-MU-IdoA activity assay; assay type: biochemical; details: pH 4.5, 60 min incubation, competition with 4-MU-IdoA; covalent; read-out: apparent IC50
T1 construct: gene IDUA; therapeutic recombinant enzyme (Aldurazyme, Genzyme), secreted lysosomal glycoprotein; chymotryptic active-site peptide Asn297-Leu303 with nucleophile Glu299
T1 sequence (P35475 28-653): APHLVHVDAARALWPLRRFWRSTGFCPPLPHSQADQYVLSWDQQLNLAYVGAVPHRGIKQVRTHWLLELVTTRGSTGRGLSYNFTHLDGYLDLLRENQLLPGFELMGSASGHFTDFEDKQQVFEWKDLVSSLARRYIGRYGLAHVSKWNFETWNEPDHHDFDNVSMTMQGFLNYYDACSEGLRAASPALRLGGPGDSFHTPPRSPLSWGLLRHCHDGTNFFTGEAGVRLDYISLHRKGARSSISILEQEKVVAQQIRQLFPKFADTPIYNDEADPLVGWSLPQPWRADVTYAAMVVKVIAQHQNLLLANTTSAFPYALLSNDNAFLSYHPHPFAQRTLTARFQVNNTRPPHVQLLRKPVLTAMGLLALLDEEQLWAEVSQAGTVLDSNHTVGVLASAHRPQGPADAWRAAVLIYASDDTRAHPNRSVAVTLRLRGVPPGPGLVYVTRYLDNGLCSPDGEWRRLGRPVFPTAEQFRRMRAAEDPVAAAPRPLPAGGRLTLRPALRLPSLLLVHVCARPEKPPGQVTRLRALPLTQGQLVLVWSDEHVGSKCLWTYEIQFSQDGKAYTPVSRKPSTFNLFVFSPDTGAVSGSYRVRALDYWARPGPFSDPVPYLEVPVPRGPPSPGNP

[2] = target: T1, rIDUA (human recombinant α-L-iduronidase, Aldurazyme); test: biochemical; set-up: residual rIDUA activity after 1 h preincubation, fluorogenic 4-MU-alpha-L-IdoA substrate, pH 4.5, apparent IC50
Method: Apparent IC50 values of inhibitors and ABPs on recombinant human iduronidase and cell lysates Inhibitors and ABPs were diluted at various concentrations in 12.5 µL assay buffer and incubated with 12.5 µL rIDUA (5.8 ng, or 70 fmol) or fibroblast lysates (50 µg protein), both diluted in assay buffer, at 37°C for 1 h (rIDUA) or 4 h (fibroblasts lysates), at 1% (v/v) DMSO concentration. This was followed by iduronidase activity assay (30 min incubation time) described in the previous section. The detected 4-MU fluorescence at each concentration for each compound were normalized to the fluorescence from the control sample without inhibitor, and data were fitted with [inhibitor] vs response – variable slope (four parameters) function in Graphpad Prism 7.0 software to obtain apparent IC50 values. Iduronidase activity assay using 4-MU-α-L-IdoA as substrate Samples containing enzyme were diluted in assay buffer (150 mM citrate/Na2HPO4, pH 4.5, supplemented with 0.1% (v/v) Triton X-100, 0.15 M NaCl, 33 mM CaCl2, 33 mM MgCl2), and load onto a black flat-bottom 96-well plate (Greiner) in triplicates of 25 µL per well. Negative controls (blank) were prepared by substituting enzyme samples with buffer. For reaction, samples were added with 25 µL of 360 µM 4-MU-α-L-IdoA1 (prepared in assay buffer supplemented with 0.1 % (w/v) bovine serum albumin (BSA)), and incubated at 37°C for 30 min to 4h. […]

Row | Compound | IC50 [1] [µM] | IC50 [2] [µM]
1 | [N-]=[N+]=NCCCCCCCCN1[C@@H]2[C@@H](CO)[C@@H](O)[C@H](O)[C@@H](O)[C@@H]21 (stereo partly drawn) [compound 12, alkyl aziridine 12] | 12.2 ± 3.24 | –
2 | [N-]=[N+]=NCCCCCCCCN1[C@@H]2[C@@H](C(=O)O)[C@@H](O)[C@H](O)[C@@H](O)[C@@H]21 (stereo partly drawn) [compound 1, inhibitor 1] | 40.6 ± 17 | –
3 | OC[C@H]1[C@@H](O)[C@H](O)[C@@H](O)[C@@H]2N[C@H]12 [compound 11, aziridine 11] | – | > 100
